Patent US20210172961A1, “METHODS FOR IDENTIFYING RNA EDITING-DERIVED EPITOPES THAT ELICIT IMMUNE RESPONSES IN CANCER” (Board of Regents, The University of Texas System, priority 2018, published 2021)

How the values were obtained:
Assay type in all cases: cell-based, human
melanoma TILs = experiment: IFNγ ELISPOT of melanoma TILs incubated with synthetic peptide; conditions: for IFNγ production by TILs (ELISPOT response to peptide): 15 HLA-A*02:01-expressing melanoma TILs, peptide 10 μM
Source text: To examine whether the detected HLA ligands are recognized by tumor-infiltrating lymphocytes (TILs) and if these TILs can kill cells presenting ED. For this analysis, matched autologous pairs of melanoma TILs and tumor cell lines were used. CCNI-ED peptide and its WT counterpart were synthesized and evaluated for their ability to activate TILs generated from human melanoma tumours.
Melanoma TILs were generated as described before. Briefly, melanoma tumor samples were either cut into 1-3 mm^2 fragments and put in culture in a tissue-treated 24-well plate, in complete TIL media (TIL-CM) consisting of RPMI 1640 (Gibco, 61871), 10% of human AB serum (GEMINI, 100-512), 0.1% of 2-mercaptoethanol (Gibco, 21985023), 1% of HEPES (Corning, 25-060), 1% sodium pyruvate (Invitrogen/Life Technologies, 11360-070), 1% of Glutomax (Gibco, 35050061), 1% PenStrep (ThermoFisher, 15070063) plus 6000 U/mL of human IL-2 or put in culture after the tumor samples were enzymatically digested by collagenase for 1 h at 37° C. followed by centrifugation using a multi-layer Ficoll gradient (100% and 75%, Ficoll-Paque PLUS, GE, 17-1440-02) where the 100% layer was collected for TILs. Every 3 days, half of the medium was replaced with fresh medium and the TIL culture was split to keep the cells at a density of 1×10^6/mL. TILs were expanded between 2 to 5 weeks, depending on the TIL lines. To increase the number of TILs available for experiments, the lines were further expanded using the rapid expansion protocol (REP). In brief, 1.5×10^5 primary TILs generated above were cultured with 27×10^6 feeder cells together with 0.6 mg soluble anti-CD3 monoclonal antibody (OKT3 clone, Muronomab—Abbott Labs). The feeder cells are peripheral blood mononuclear (PBMC) cells mixed from at least 5 healthy donors and irradiated at 5,000 cGy for 20 minutes prior to culture in order to prevent their proliferation during the REP. 6,000 U/mL IL-2 was added at the second day and half of the medium was recovered and replaced with fresh medium containing 50% of TIL-CM and 50% of AIM-V medium (Invitrogen, 12055-083) every 3 days to keep TIL density between 0.5-2×10^6/mL. The cultured TILs were harvested at day 14 for functional analysis or frozen in human serum with 10% DMSO (Thermo Fisher, 67-68-5). Autologous tumor cell lines were also established from the enzymatically digested tumours followed by the multi-layer Ficoll gradient where the 75% layer was collected and put in culture in complete tumor media (RPMI 1640, Gibco, 61871) containing 10% FBS, 1% HEPES (Corning, 25-060), 1% sodium pyruvate (Invitrogen/Life Technologies, 11360-070), 1% insulin/selenium/transferrin (Gibco, 51300), 0.2% MycoZap-PR (Lonza, VZA-2011). All tumor samples were HLA typed at the HLA-A locus in the MD Anderson HLA Typing Laboratory. […]

T2 cells = experiment: Caspase3 based CTL killing assay, TIL2661 against peptide-pulsed T2 cells; conditions: T2 pulsed with 10 μM peptide, anti-caspase3 staining, flow cytometry
Source text: T cells play a primary role in adaptive immunity against infections and tumorigenesis, and therapies based on manipulating T-cell activation have shown promise in cancer treatment. To determine the function of CCNI-ED specific T cells in mediating tumor cell killing, the HLA-A*02:01 expressing lymphoblast cell line T2, which is lacking expression of the transporter associated with antigen processing (TAP) and thus incapable of presenting endogenous peptides, were employed. The CCNI-WT or CCNI-ED peptide were pulsed onto T2 cells, co-cultured with TIL2661 in different ratios, and then measured T-cell mediated target cell death based on anti-caspase3 staining and subsequent flow cytometric quantification. […]
T cell-mediated cell killing was analyzed using a flow cytometry-based method by detecting T cell-induced caspase-3 cleavage in target cells. […] T cell-mediated caspase-3 cleavage was measured by intracellular staining with Cytofix/Cytoperm reagent (BD Biosciences, 554772) and PE conjugated anti-cleaved caspase-3 antibody (BD Bioscience, 550821) and the number of pre-apoptotic cells were determined by flow cytometry.

293-A2 cells = experiment: IFNγ ELISPOT of Ted10 with peptide-pulsed or CCNI-transfected 293-A2 cells; conditions: 293-A2 cells pulsed with peptide
Description: To investigate this relationship on cellular level, CCNI-ED10-specific effector T cells (Ted10) were generated from HLA-A*02:01-expressing normal peripheral blood mononuclear cells (PBMCs) using an established method.
IFNγ Enzyme-linked immunospot (ELISPOT) assay was performed to detect T-cell responses. MultiScreen 96 well filter plates (Millipore, MAHAS4510) were coated over night at 4° C. with 75 μL/well of […] anti-human IFNγ capture antibody (Mabtech AB, 3420-3-1000). TILs or CCNI-ED specific T cells (Ted10) were thawed and cultured with 1000U of human IL-2/mL overnight. On the next day, before performing ELISPOT assay, T cells were starved with IL-2 free medium for 6 hours. […] After 18 hours of cultivation at 37° C. and 5% CO2, the plates were incubated with 1 ng/mL of Biotinylated anti-human IFNγ monoclonal antibody (Mabtech, 3420-6-1000) for one hour, stained with ExtrAvidine®-Alkaline phosphatase (Sigma-Aldrich, E2636) and IFNγ positive spots were detected with BCIP/NBT Membrane Alkaline Phosphatase Substrate (Sigma, 11697471001). Plates were scanned and counted using the ImmunoSpot® ELISPOT analyzer (Shaker Heights, Ohio) to determine the number of spots/well. […]

Row | Sequence | IFNγ ELISPOT response of TIL to peptide (melanoma TILs; TIL2576, parallel assay with the same TILs) | IFNγ production by TILs (ELISPOT response to peptide) (melanoma TILs; triplicates) | number of HLA-A*02:01-expressing TILs that responded (TIL2678, TIL2661, TIL2559) (melanoma TILs; IFNγ ELISPOT, triplicates) | TIL2661 mediated killing of peptide-pulsed T2 cells (T2 cells) | IFNγ production by Ted10 (ELISPOT) (293-A2 cells)
1 | LLDGFLATV (listed as Homo sapiens) [CCNI-ED9, RNA editing-derived HLA peptide, editing site CCNI R75G] | weakly reacted | – | – | – | –
2 | SLLDGFLATV (listed as Homo sapiens) [CCNI-ED10, RNA editing-derived HLA peptide, editing site CCNI R75G] | – | strongly responded | 3 out of 15 | facilitated target killing | potently activated
3 | SLLDRFLATV (listed as Homo sapiens) [CCNI-WT10, non-edited wildtype counterpart of CCNI-ED10, reference compound] | – | none of the TILs responded | – | CCNI-ED10, rather than CCNI-WT10, to T2 cells facilitated target killing | –
